Experimental data as given in the supplement of paper PMC10883282.

Key:
Assay in all cases: standardised AUC of viability dose-response curve (72 h) (fraction (0-1)); higher = less growth inhibition (more resistant)
G401 = test system: G401
Outline: (§1)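 Sarcoma cell lines in 384-well plates were treated in triplicate for 72 h with 2.5 µl of compound dilution series (compound-plate series 10 mM to 0.0002 mM, 1:3 steps). ATPLite viability was scaled 1 (full) to 0 (none) and fitted per drug and cell line with a four-parameter log-logistic model. The standardised area under the dose-response curve in log-dose space (modified drexplorer computeAUC) runs from 1 (no response) to 0 (full response).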

SYO-1 = test system: SYO-1
Outline: as §1

HS729 = test system: HS729
Outline: as §1

A204 = test system: A204
Outline: as §1

SW684 = test system: SW684
Outline: as §1

SW982 = test system: SW982
Outline: as §1

SW1353 = test system: SW1353
Outline: as §1

RD = test system: RD
Outline: as §1

HT1080 = test system: HT1080
Outline: as §1

KHOS-NP = test system: KHOS-NP
Outline: as §1

SK-ES-1 = test system: SK-ES-1
Outline: as §1

MES-SA = test system: MES-SA
Outline: as §1

KHOS-240S = test system: KHOS-240S
Outline: as §1

VA-ES-BJ = test system: VA-ES-BJ
Outline: as §1

RD-ES = test system: RD-ES
Outline: as §1

SW872 = test system: SW872
Outline: as §1

SK-LMS-1 = test system: SK-LMS-1
Outline: as §1

Structure (SMILES)	standardised AUC (G401)	standardised AUC (SYO-1)	standardised AUC (HS729)	standardised AUC (A204)	standardised AUC (SW684)	standardised AUC (SW982)	standardised AUC (SW1353)	standardised AUC (RD)	standardised AUC (HT1080)	standardised AUC (KHOS-NP)	standardised AUC (SK-ES-1)	standardised AUC (MES-SA)	standardised AUC (KHOS-240S)	standardised AUC (VA-ES-BJ)	standardised AUC (RD-ES)	standardised AUC (SW872)	standardised AUC (SK-LMS-1)
CC(C)NC(=O)C1CCC(n2c(NC(=O)c3ccc(F)cc3)nc3ccc(CN4CCC(C(C)(C)O)CC4)cc32)CC1 (configuration not stated) [BELIZATINIB]	0.829	0.827	0.838	0.922	0.925	0.762	0.897	0.788	0.952	0.973	0.749	0.901	0.844	0.835	0.791	0.82	0.926
Cc1cc(C)c(/C=C2\C(=O)Nc3ccccc32)[nH]1 [SEMAXANIB]	0.983	0.857	0.938	0.888	0.939	0.936	0.979	0.993	0.983	0.98	0.978	0.976	0.939	0.947	0.968	0.993	0.954
C[C@]1(O)C[C@@H](c2nc(-c3ccc4ccc(-c5ccccc5)nc4c3)c3c(N)nccn32)C1 [LINSITINIB]	0.817	0.876	0.776	0.922	0.965	0.9	0.979	0.836	0.954	0.973	0.708	0.952	0.915	0.936	0.73	0.936	0.973
CC(=O)Nc1cccc(-n2c(=O)n(C3CC3)c(=O)c3c(Nc4ccc(I)cc4F)n(C)c(=O)c(C)c32)c1 [TRAMETINIB]	0.651	0.825	0.761	0.782	0.714	0.897	0.709	0.65	0.577	0.523	0.958	0.827	0.783	0.756	0.989	0.619	0.533
O=C(Nc1cnn2ccc(N3CCC[C@@H]3c3cc(F)ccc3F)nc12)N1CC[C@H](O)C1 [LAROTRECTINIB]	0.98	0.92	0.886	0.992	0.985	0.996	0.936	0.995	0.996	0.969	0.982	0.982	0.988	0.969	0.994	0.953	0.961
COc1cc2c(Oc3ccc4[nH]c(C)cc4c3F)ncnc2cc1OCCCN1CCCC1 [CEDIRANIB]	0.797	0.743	0.929	0.622	0.995	0.959	0.922	0.966	0.996	0.98	0.917	0.91	0.939	1	0.987	0.986	0.966
CN[C@@H]1C[C@H]2O[C@@](C)([C@@H]1OC)n1c3ccccc3c3c4c(c5c6ccccc6n2c5c31)C(=O)NC4 [STAUROSPORINE]	0.331	0.288	0.409	0.309	0.427	0.25	0.294	0.343	0.313	0.369	0.398	0.435	0.284	0.346	0.435	0.337	0.376
CNC(=O)c1ccc(-c2cnc3ncc(Cc4ccc5ncccc5c4)n3n2)cc1F [CAPMATINIB]	0.973	1	0.989	0.971	0.958	0.985	1	0.995	0.976	0.998	1	0.982	0.986	0.873	1	0.989	0.68
COc1cc2/c(=N/c3ccc(Br)cc3F)nc[nH]c2cc1OCC1CCN(C)CC1 [VANDETANIB]	0.925	0.757	0.921	0.843	0.954	0.836	0.906	0.852	0.968	0.961	0.853	0.912	0.879	0.955	0.911	0.886	0.894
COc1cc2nccc(Oc3ccc(NC(=O)Nc4cc(C)on4)c(Cl)c3)c2cc1OC [TIVOZANIB]	0.933	0.807	0.971	0.658	0.985	0.974	0.97	0.985	0.995	0.983	0.971	0.931	0.954	0.995	0.974	0.982	0.956
COCc1c(-c2cc3cc(C)cc(OC)c3s2)c2c(N)ncnn2c1CN1CCNC(=O)C1 [ROGARATINIB]	0.807	0.751	0.776	0.755	0.974	0.93	0.851	0.958	0.999	0.987	0.907	0.85	0.854	0.962	0.934	0.943	0.952
